The results in this text go back to PubChem BioAssay (NCI).

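Values below derive from 48-hour exposures of cells grown in 96-well plates, with endpoints linearly interpolated between the two concentrations bracketing the appropriate inhibition level. TGI denotes the concentration required for complete inhibition of growth.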 Where a SMILES comes first, the peptide text is derived from it. The star is where a group is joined. Cbz = O=C(OCc1ccccc1)*; Boc = CC(C)(C)OC(=O)*; tBu = CC(C)(C)*

Test systems include ACHN renal; HCT-15 colon; HT29 colon; K-562 leukemia; MOLT-4 leukemia; NCI-H522 lung; OVCAR-8 ovarian; SK-OV-3 ovarian; SN12C renal; SW-620 colon; TK-10 renal; SNB-75 CNS; MCF7 breast; MDA-MB-435; T-47D breast.
What all share (test): NCI-60 cell line screen, 48 h

For the compound `COC(=O)C(=Cc1cc(OC)c(OC)c(OC)c1-c1cc2c(cc1C(C)=O)OCO2)C(=O)OC`, the TGI in the experiment on ACHN renal was 100 µM; with HCT-15 colon, 50.2 µM; in the experiment on HT29 colon it was 77 µM; in the experiment on K-562 leukemia it was above 211 µM; in the experiment on MOLT-4 leukemia it was above 211 µM; in the experiment on NCI-H522 lung it was 62.2 µM. Also, the TGI in the experiment on OVCAR-8 ovarian is above 211 µM; with SK-OV-3 ovarian it was above 211 µM; in the experiment on SN12C renal, 58.8 µM; with SW-620 colon, 102 µM; in the experiment with TK-10 renal, 187 µM.

In the case of `C/C(=C1/CCC/C(=C(/C)c2ccccc2)C1=O)c1ccccc1`, the TGI with ACHN renal was above 100 µM; with HCT-15 colon, above 100 µM; in the experiment on HT29 colon, 86.8 µM; with K-562 leukemia it was 47.1 µM; with MOLT-4 leukemia it was 64.3 µM; in the experiment on NCI-H522 lung it was above 100 µM. Further, the TGI in the experiment with OVCAR-8 ovarian, with SK-OV-3 ovarian, in the experiment with SN12C renal, with SNB-75 CNS, in the experiment on SW-620 colon and in the experiment on TK-10 renal was above 100 µM each time.

In the case of `COC/C=C\[C@]1(O)CCCC[C@@H]1CC(OC)OC`, the TGI in the experiment on ACHN renal, in the experiment with HCT-15 colon, in the experiment on HT29 colon, with K-562 leukemia, in the experiment with MCF7 breast and with MDA-MB-435 was above 100 µM throughout. Also, the TGI with MOLT-4 leukemia was 91.2 µM; in the experiment with NCI-H522 lung, above 100 µM; in the experiment on OVCAR-8 ovarian, above 100 µM; in the experiment on SK-OV-3 ovarian, above 100 µM; in the experiment on SNB-75 CNS, above 100 µM; with SW-620 colon, above 100 µM. Besides, the TGI with T-47D breast and in the experiment on TK-10 renal was above 100 µM in each case.

Turning to `COc1ccc(-c2cc(=O)c3ccccc3[nH]2)c(OC)c1`, the TGI in the experiment with ACHN renal, in the experiment with HCT-15 colon, in the experiment on HT29 colon, with K-562 leukemia, in the experiment with MOLT-4 leukemia and in the experiment with NCI-H522 lung was above 100 µM throughout. In addition, the TGI with OVCAR-8 ovarian, with SK-OV-3 ovarian, in the experiment on SN12C renal, with SNB-75 CNS, in the experiment on SW-620 colon and with TK-10 renal was above 100 µM each time.

Consider `CC(OC(C)(C)C)C(NC(=O)C(CCCCNC(=O)OC(C)(C)C)NC(=O)C(Cc1c[nH]c2ccccc12)NC(=O)C(Cc1ccccc1)NC(=O)OCc1ccccc1)C(=O)NC(Cc1ccccc1)C(=O)O` (stereo not given) (Cbz-FWK(Boc)T(tBu)F-OH; configuration not given here), for which the TGI with ACHN renal, in the experiment on HCT-15 colon, in the experiment on HT29 colon, in the experiment with K-562 leukemia, with MCF7 breast and with MDA-MB-435 was above 100 µM throughout. For the same compound, the TGI was above 100 µM with MOLT-4 leukemia; 85 µM in the experiment on NCI-H522 lung; above 100 µM with OVCAR-8 ovarian; above 100 µM in the experiment with SK-OV-3 ovarian; 62.6 µM in the experiment on SN12C renal; above 100 µM in the experiment with SNB-75 CNS. The TGI in the experiment with SW-620 colon was above 100 µM; with T-47D breast, 73.6 µM; with TK-10 renal it was above 100 µM.

As to `Cc1ccc(S(=O)(=O)OC(c2ccc(Cl)cc2Cl)C2OC(=O)c3ccccc32)cc1` (stereo not given), the TGI with ACHN renal, in the experiment on HCT-15 colon, in the experiment with HT29 colon, in the experiment on K-562 leukemia, in the experiment on MOLT-4 leukemia and in the experiment with NCI-H522 lung was above 100 µM each time. Further, the TGI in the experiment with OVCAR-8 ovarian, in the experiment with SN12C renal, with SW-620 colon and in the experiment on TK-10 renal was above 100 µM each time.

In the case of `CC1(C)CC(=O)C(/C=N/c2nc(-c3ccccc3)cs2)=C(O)C1`, the TGI is above 100 µM in the experiment with ACHN renal; 63.7 µM with HCT-15 colon; above 100 µM in the experiment with HT29 colon; above 100 µM with MCF7 breast; 73.6 µM in the experiment with MDA-MB-435; above 100 µM in the experiment with MOLT-4 leukemia. Moreover, the TGI in the experiment on OVCAR-8 ovarian, in the experiment on SK-OV-3 ovarian, in the experiment on SN12C renal, with SNB-75 CNS, in the experiment with SW-620 colon and with T-47D breast was above 100 µM each time. The compound further showed a TGI in the experiment on TK-10 renal above 100 µM.

For `CCOC(=O)C(Cc1cn(S(=O)(=O)c2ccccc2)c2ccccc12)(NC(C)=O)C(=O)OCC`, the TGI with ACHN renal was above 100 µM; with HCT-15 colon, above 100 µM; with HT29 colon, above 100 µM; in the experiment with K-562 leukemia it was above 100 µM; with MOLT-4 leukemia it was 61.4 µM; with NCI-H522 lung, 52.5 µM. Further, the TGI was above 100 µM in the experiment with OVCAR-8 ovarian, 33.3 µM in the experiment on SNB-75 CNS, above 100 µM in the experiment on SW-620 colon and above 100 µM with TK-10 renal.

As to `CCCCCCCCCCN(CCCCCCCCCC)C(=O)COc1c2cc(C(C)(C)C)cc1Cc1cc(C(C)(C)C)cc(c1OCC(=O)N(CCCCCCCCCC)CCCCCCCCCC)Cc1cc(C(C)(C)C)cc(c1OCC(=O)N(CCCCCCCCCC)CCCCCCCCCC)Cc1cc(C(C)(C)C)cc(c1OCC(=O)N(CCCCCCCCCC)CCCCCCCCCC)C2`, the TGI with ACHN renal worked out at 28.1 µM; in the experiment on HCT-15 colon it was 21.7 µM; with HT29 colon it was 12.3 µM; with K-562 leukemia it was 4.87 µM; with MCF7 breast it was 6.95 µM; in the experiment with MDA-MB-435, 25.6 µM. The TGI in the experiment with MOLT-4 leukemia was determined as 6.34 µM; with NCI-H522 lung, 10.2 µM; in the experiment on OVCAR-8 ovarian it was 16.6 µM; with SK-OV-3 ovarian, 27.6 µM; with SN12C renal, 26.2 µM; with SNB-75 CNS, 32.5 µM. Also, the TGI in the experiment on SW-620 colon amounted to 14.2 µM; with T-47D breast it was 32.3 µM; in the experiment on TK-10 renal it was 33.5 µM.

For `CSC1=N/C(=C\c2ccccc2)C(=O)N1CN1CCCCC1`, the TGI with ACHN renal was above 100 µM; in the experiment with HT29 colon it was 90.7 µM; in the experiment with K-562 leukemia, above 100 µM; in the experiment with MCF7 breast, above 100 µM; in the experiment with MDA-MB-435, above 100 µM; in the experiment with MOLT-4 leukemia, above 100 µM. For the same compound, the TGI with NCI-H522 lung, in the experiment on OVCAR-8 ovarian, in the experiment with SK-OV-3 ovarian, with SN12C renal, in the experiment with SNB-75 CNS and in the experiment on SW-620 colon was above 100 µM in each case. In the experiment on TK-10 renal, this compound gave a TGI above 100 µM.
